Experimental data: ChEMBL document CHEMBL1146202, “First report of plasmid-mediated qnrA1 in a ciprofloxacin-resistant Escherichia coli strain in Latin America” (2007)
≈ marks a conversion by molar mass, not a printed value.

Columns and labels:
Assay type in all cases: functional
[1] = test system: Escherichia coli; assay: Antimicrobial activity against streptomycin-resistant Escherichia coli J53 transconjugant with qnrA1 producing urinary specimen isolate 13.52 by agar dilution method
[2] = test system: Escherichia coli; assay: Antimicrobial activity against streptomycin-resistant Escherichia coli J53 by agar dilution method
[3] = test system: Escherichia coli; assay: Antimicrobial activity against Escherichia coli qnrA1 producing urinary specimen isolate 13.52 by agar dilution method; details: Urine

| Compound | MIC ([1]; J53, Urine) [µg/mL] | MIC [2] [µg/mL] | MIC [3] [µg/mL] | MIC ([1]; Urine) [µg/mL] |
| --- | --- | --- | --- | --- |
| CN[C@@H]1[C@H](O[C@H]2[C@H](O[C@H]3[C@H](O)[C@@H](O)[C@H](N=C(N)N)[C@@H](O)[C@@H]3N=C(N)N)O[C@@H](C)[C@]2(O)C=O)O[C@@H](CO)[C@H](O)[C@H]1O (stereo in doubt) [STREPTOMYCIN] | > 1020 | > 1020 | 192 (≈ 330 µM) |  |
| NCC[C@H](O)C(=O)N[C@@H]1C[C@H](N)[C@@H](O[C@H]2O[C@H](CN)[C@@H](O)[C@H](O)[C@H]2O)[C@H](O)[C@H]1O[C@H]1O[C@H](CO)[C@@H](O)[C@H](N)[C@H]1O [AMIKACIN] | 2 (≈ 3.42 µM) | 2 (≈ 3.42 µM) | 4 (≈ 6.83 µM) |  |
| GENTAMICIN |  | 0.125 | 2 | 2 |
| CCn1cc(C(=O)O)c(=O)c2ccc(C)nc21 [NALIDIXIC ACID] | 128 (≈ 551 µM) | 4 (≈ 17.2 µM) | 256 (≈ 1100 µM) |  |
| CC(C)(O/N=C(\C(=O)N[C@@H]1C(=O)N2C(C(=O)[O-])=C(C[n+]3ccccc3)CS[C@H]12)c1csc(N)n1)C(=O)O [CEFTAZIDIME] | 128 (≈ 234 µM) | 0.25 (≈ 0.457 µM) | 64 (≈ 117 µM) |  |
| CC(O)[C@H]1C(=O)N2C(C(=O)O)=C(SCCNC=N)C[C@H]12 (single isomer, unassigned) [IMIPENEM ANHYDROUS] | ≤ 0.025 | ≤ 0.025 | ≤ 0.025 |  |
| NC[C@H]1O[C@H](O[C@H]2[C@H](O)[C@@H](O[C@H]3O[C@H](CO)[C@@H](O)[C@H](N)[C@H]3O)[C@H](N)C[C@@H]2N)[C@H](O)[C@@H](O)[C@@H]1O [KANAMYCIN] | 128 (≈ 264 µM) | 8 (≈ 16.5 µM) | 32 (≈ 66 µM) |  |
| COc1c(N2CCNC(C)C2)c(F)cc2c(=O)c(C(=O)O)cn(C3CC3)c12 (stereo not given) [GATIFLOXACIN] | 1 (≈ 2.66 µM) | 0.012 (≈ 0.032 µM) | 8 (≈ 21.3 µM) |  |
| CO[C@@]1(NC(=O)Cc2cccs2)C(=O)N2C(C(=O)O)=C(COC(N)=O)CS[C@@H]21 [CEFOXITIN] | 256 (≈ 599 µM) | 8 (≈ 18.7 µM) | 32 (≈ 74.9 µM) |  |
| C[C@H]1COc2c(N3CCN(C)CC3)c(F)cc3c(=O)c(C(=O)O)cn1c23.C[C@H]1COc2c(N3CCN(C)CC3)c(F)cc3c(=O)c(C(=O)O)cn1c23.O [LEVOFLOXACIN] | 1.5 | 0.064 | 8 |  |
| CO/N=C(\C(=O)N[C@@H]1C(=O)N2C(C(=O)[O-])=C(C[N+]3(C)CCCC3)CS[C@H]12)c1csc(N)n1 [CEFEPIME] | 0.5 (≈ 1.04 µM) | 0.06 (≈ 0.125 µM) | 0.5 (≈ 1.04 µM) |  |
| O=C(N[C@H](CO)[C@H](O)c1ccc([N+](=O)[O-])cc1)C(Cl)Cl [CHLORAMPHENICOL] | 48 (≈ 149 µM) | 8 (≈ 24.8 µM) | > 256 |  |
| CO/N=C(\C(=O)N[C@@H]1C(=O)N2C(C(=O)O)=C(CSc3nc(=O)c(O)nn3C)CS[C@H]12)c1csc(N)n1 (stereo in doubt) [CEFTRIAXONE] | 8 (≈ 14.4 µM) | 0.047 (≈ 0.0847 µM) | 8 (≈ 14.4 µM) |  |
| C[C@@H](O)[C@H]1C(=O)N2C(C(=O)O)=C(S[C@@H]3CN[C@H](C(=O)N(C)C)C3)[C@H](C)[C@H]12 [MEROPENEM] | ≤ 0.025 | ≤ 0.025 | ≤ 0.025 |  |
| CC1(C)S[C@@H]2[C@H](NC(=O)[C@H](N)c3ccccc3)C(=O)N2[C@H]1C(=O)O [AMPICILLIN] | > 256 | 8 (≈ 22.9 µM) | > 256 |  |
